Measurements reported in patent US8592469B2, “Diazonamide analogs” (Joyant Pharmaceuticals, Inc., priority 2012, dated 2013).

Tests used:
U937 cells = assay: Cell viability assay (Cell-Titer-Glo) in U937 cells; type: cell-based; conditions: Homo sapiens, U-937, 48 hour treatment, test compounds 1 nM to 1 μM
Procedure: (§1) Cell viability assays were run using standard protocols known to those of skill in art. Cells were plated in 96 well plates at the density of 3,000-10,000 cells per well. Twenty four hours later, cells were treated with increasing concentration of test compounds (1 nM to 1 μM). After another 48 hour, cell survival was measured using Cell-Titer-Glo® reagent (Promega) following the protocol provided by the manufacture. The IC50 value was determined as the concentration of test compound that kills 50% of the cell population.
(§2) Cell viability data generated according to the protocol described above was generated for representative compounds in A2058 and U937 cells. The compounds shown in Table 1 were prepared by the methods described herein for structurally similar compounds. The reference compound was a synthetic diazonamide analog having the structure: […]

A2058 cells = assay: Cell viability assay (Cell-Titer-Glo) in A2058 cells; type: cell-based; conditions: Homo sapiens, 48 hour treatment, test compounds 1 nM to 1 μM
Procedure: as §1, §2

| SMILES | IC50 (U937 cells) [nM] | IC50 (A2058 cells) [nM] |
| --- | --- | --- |
| CCC(O)(CC)C(=O)N[C@H]1Cc2ccc3c(c2)C2(C4=C(c5nc(C(=O)OC)co5)N=C(O4)[C@H](C(C)(C)C)NC1=O)c1ccccc1N[C@H]2O3 (stereo partly drawn) [Compound 63] | 1.97 | 15.5 |
| CCC(O)(CC)C(=O)N[C@H]1Cc2ccc3c(c2)C2(C4=C(c5nc(CO)co5)N=C(O4)[C@H](C(C)(C)C)NC1=O)c1ccccc1N[C@H]2O3 (stereo partly drawn) [Compound 64] | 45.9 | 43.2 |
| CCC(O)(CC)C(=O)N[C@H]1Cc2ccc3c(c2)C2(C4=C(c5nc(C#N)co5)N=C(O4)[C@H](C(C)(C)C)NC1=O)c1ccccc1N[C@H]2O3 (stereo partly drawn) [Compound 65] | 67.6 | 16.8 |
| CC(C)=CC(=O)N[C@H]1Cc2ccc3c(c2)C2(C4=C(c5nc(C#N)co5)N=C(O4)[C@H](C(C)(C)C)NC1=O)c1ccccc1N[C@H]2O3 (stereo partly drawn) [Compound 66] | 215 | 186 |
| CC(C)C[C@H](O)C(=O)NC1Cc2ccc3c(c2)C2(C4=C(c5nc(C#N)co5)N=C(O4)[C@H](C(C)(C)C)NC1=O)c1ccccc1N[C@H]2O3 (stereo partly drawn) [Compound 67] | 89.7 | 35.8 |
| CCC(C)(O)C(=O)N[C@H]1Cc2ccc3c(c2)C2(C4=C(c5nc(C#N)co5)N=C(O4)[C@H](C(C)(C)C)NC1=O)c1ccccc1N[C@H]2O3 (stereo partly drawn) [Compound 68] | 59.6 | 21.1 |
| CCC(C)(C)C(=O)NC1Cc2ccc3c(c2)C2(C4=C(c5nc(C#N)co5)N=C(O4)[C@H](C(C)(C)C)NC1=O)c1ccccc1N[C@H]2O3 (stereo partly drawn) [Compound 69] | 225 | 95.5 |
| COC(=O)c1coc(-c2nc3oc2[C@@]24c5ccccc5NC2Oc2c(Cl)cc(cc24)CC(NC(=O)[C@@H](O)C(C)C)C(=O)N[C@H]3C(C)C)n1 (stereo partly drawn) [Compound 70] | 15 | 77 |
| COC(=O)c1coc(-c2nc3oc2[C@@]24c5ccccc5NC2Oc2c(F)cc(cc24)CC(NC(=O)[C@@H](O)C(C)C)C(=O)N[C@H]3C(C)C)n1 (stereo partly drawn) [Compound 71] | 9.2 | 67 |
| CCCCCCc1cc2cc3c1O[C@@H]1Nc4ccccc4C31c1oc(nc1-c1nc(C(=O)OC)co1)[C@H](C(C)C)NC(=O)[C@@H](NC(=O)[C@@H](O)C(C)C)C2 (stereo partly drawn) [Compound 72] | 213 | > 300 |
| COC(=O)c1coc(-c2nc3oc2C24c5ccccc5N[C@H]2Oc2ccc(cc24)CC[C@H](NC(=O)[C@@H](O)C(C)C)C(=O)N[C@H]3C(C)(C)C)n1 (stereo partly drawn) [Compound 73] | < 0.1 | < 0.1 |
| COC(=O)c1coc(-c2nc3oc2[C@]24c5ccccc5NC2Oc2ccc(cc24)CC[C@H](NC(=O)[C@@H](O)C(C)C)C(=O)N[C@H]3C(C)(C)C)n1 (stereo partly drawn) [Compound 74] | > 100 | > 100 |
| CC(C)[C@H](O)C(=O)N[C@H]1CCc2ccc3c(c2)[C@]2(C4=C(c5nc(CO)co5)N=C(O4)[C@H](C(C)(C)C)NC1=O)c1ccccc1NC2O3 (stereo partly drawn) [Compound 75] | 6.55 | 1.89 |
| COC(=O)c1coc(-c2nc3oc2C24c5cc(ccc5O[C@@H]2N(S(C)(=O)=O)c2ccccc24)C[C@H](NC(=O)[C@@H](O)C(C)C)C(=O)N[C@H]3C(C)C)n1 (stereo partly drawn) [Compound 76] | 614 | > 1000 |
| CC(C)[C@H](O)C(=O)N[C@H]1Cc2ccc3c(c2)C2(C4=C(c5nc(CO)co5)N=C(O4)[C@H](C(C)C)NC1=O)c1ccccc1N(S(C)(=O)=O)[C@H]2O3 (stereo partly drawn) [Compound 77] | 777 | > 1000 |
| COC(=O)c1coc(-c2nc3oc2C24c5cc(ccc5O[C@@H]2N(C)c2ccccc24)C[C@H](NC(=O)[C@@H](O)C(C)C)C(=O)N[C@H]3C(C)C)n1 (stereo partly drawn) [Compound 78] | 17.4 | 114 |
| COC(=O)c1coc(-c2nc3oc2C24c5cc(ccc5O[C@@H]2Nc2c(-c5ccccc5)cccc24)C[C@H](NC(=O)[C@@H](O)C(C)C)C(=O)N[C@H]3C(C)C)n1 (stereo partly drawn) [Compound 79] | 210 | 270 |
| COC(=O)c1coc(-c2nc3oc2C24c5cc(F)ccc5N[C@H]2Oc2ccc(cc24)C[C@H](NC(=O)[C@@H](O)C(C)C)C(=O)N[C@H]3C(C)C)n1 (stereo partly drawn) [Compound 80] | 4.07 | 13.6 |
| CC(C)[C@H](O)C(=O)N[C@H]1Cc2ccc3c(c2)[C@]2(C4=C(c5nc(CO)co5)N=C(O4)[C@H](C(C)C)NC1=O)c1cc(F)ccc1N[C@@H]2O3 [Compound 81] | 32.8 | 55.1 |
| COC(=O)c1coc(-c2nc3oc2C24c5ccc(F)cc5N[C@H]2Oc2ccc(cc24)C[C@H](NC(=O)[C@@H](O)C(C)C)C(=O)N[C@H]3C(C)C)n1 (stereo partly drawn) [Compound 82] | 3.4 | 40.9 |
| CC(C)[C@H](O)C(=O)N[C@H]1Cc2ccc3c(c2)C2(C4=C(c5nc(CO)co5)N=C(O4)[C@H](C(C)C)NC1=O)c1ccc(F)cc1N[C@H]2O3 (stereo partly drawn) [Compound 83] | 60.6 | 184 |

| SMILES | IC50 (U937 cells) [nM] | IC50 (A2058 cells) [nM] |
| --- | --- | --- |
| COC(=O)c1coc(-c2nc3oc2C24c5cc(Cl)ccc5N[C@H]2Oc2ccc(cc24)C[C@H](NC(=O)[C@@H](O)C(C)C)C(=O)N[C@H]3C(C)(C)C)n1 (stereo partly drawn) [Compound 84] | 10.1 | 19.5 |
| CC(C)[C@H](O)C(=O)N[C@H]1Cc2ccc3c(c2)[C@]2(C4=C(c5nc(CO)co5)N=C(O4)[C@H](C(C)(C)C)NC1=O)c1cc(F)ccc1N[C@@H]2O3 [Compound 85] | 0.74 | 0.47 |
| CC(C)[C@H](O)C(=O)N[C@H]1Cc2ccc3c(c2)[C@]2(C4=C(c5nc(C#N)co5)N=C(O4)[C@H](C(C)C)NC1=O)c1cc(F)ccc1N[C@@H]2O3 [Compound 86] | 21.8 | 0.56 |
| CC(C)[C@H](O)C(=O)N[C@H]1Cc2ccc3c(c2)[C@]2(C4=C(c5nc(C#N)co5)N=C(O4)[C@H](C(C)(C)C)NC1=O)c1cc(F)ccc1N[C@@H]2O3 [Compound 87] | 1.9 | < 0.3 |
| COC(=O)c1coc(-c2nc3oc2[C@@]24c5ccccc5NC2Oc2ccc(cc24)C[C@H](N(C)C(=O)[C@@H](O)C(C)C)C(=O)N[C@H]3C(C)C)n1 (stereo partly drawn) [Compound 88] | 0.6 | 0.8 |
| CC(C)[C@H](O)C(=O)N(C)[C@H]1Cc2ccc3c(c2)[C@]2(C4=C(c5nc(CO)co5)N=C(O4)[C@H](C(C)C)NC1=O)c1ccccc1NC2O3 (stereo partly drawn) [Compound 89] | 1 | 3 |
| COC(=O)c1coc(-c2nc3oc2[C@@]24c5ccccc5NC2Oc2ccc(cc24)C[C@H](N(C)C(=O)[C@@H](O)C(C)C)C(=O)N[C@H]3C(C)(C)C)n1 (stereo partly drawn) [Compound 90] | 17.1 | 10.4 |
| CC(C)[C@H](O)C(=O)N(C)[C@H]1Cc2ccc3c(c2)[C@]2(C4=C(c5nc(C#N)co5)N=C(O4)[C@H](C(C)C)NC1=O)c1ccccc1NC2O3 (stereo partly drawn) [Compound 91] | 1.97 | 0.59 |
| COC(=O)c1coc(-c2nc3oc2[C@@]24c5ccccc5NC2Oc2ccc(cc24)C[C@H](NC(=O)[C@@H](O)C(C)C)C(=O)N(C)[C@H]3C(C)C)n1 (stereo partly drawn) [Compound 92] | 69.9 | 113 |
| COC(=O)c1coc(-c2nc3oc2[C@@]24c5ccccc5NC2Oc2ccc(cc24)C[C@H](N(C)C(=O)[C@@H](O)C(C)C)C(=O)N(C)[C@H]3C(C)C)n1 (stereo partly drawn) [Compound 93] | 18.6 | 35.8 |
| COC(=O)c1coc(-c2nc3oc2[C@]24c5ccccc5NC2Oc2ccc(cc24)C[C@H](NC(=O)[C@@H](O)C(C)C)C(=O)N(C)[C@H]3C(C)C)n1 (stereo partly drawn) [Compound 94] | > 300 | > 300 |
| CC(C)[C@H](O)C(=O)N[C@H]1Cc2ccc3c(c2)C2(C4=C(c5nc6cnccc6o5)N=C(O4)[C@H](C(C)C)NC1=O)c1ccccc1N[C@H]2O3 (stereo partly drawn) [Compound 95] | 65 | 142 |
| CC(C)[C@H](O)C(=O)N[C@H]1Cc2ccc3c(c2)[C@]2(C4=C(c5ccccc5)N=C(O4)[C@H](C(C)C)NC1=O)c1ccccc1NC2O3 (stereo partly drawn) [Compound 96] | > 1000 | > 1000 |
| COC(=O)c1csc(-c2nc3oc2C24c5ccccc5N[C@H]2Oc2ccc(cc24)C[C@H](NC(=O)[C@@H](O)C(C)C)C(=O)N[C@H]3C(C)C)n1 (stereo partly drawn) [Compound 97] | 59.5 | 225 |
| CC(C)[C@H](O)C(=O)N[C@H]1Cc2ccc3c(c2)C2(C4=C(c5nc(CO)cs5)N=C(O4)[C@H](C(C)C)NC1=O)c1ccccc1N[C@H]2O3 (stereo partly drawn) [Compound 98] | 231 | 284 |
| COC(=O)c1coc(-c2nc3oc2C24c5ccccc5N[C@H]2Oc2ccc(cc24)C[C@H](NC(=O)[C@@H](O)C(C)C)C(=O)N[C@@H]3C(C)C)n1 (stereo partly drawn) [Compound 99] | > 1000 | > 1000 |
| CC(C)[C@H](O)C(=O)N[C@H]1Cc2ccc3c(c2)[C@]2(C4=C(c5nc(CC(F)(F)F)co5)N=C(O4)[C@H](C(C)C)NC1=O)c1ccccc1NC2O3 (stereo partly drawn) [Compound 100] | 220 | 465 |
| CC(C)c1coc(-c2nc3oc2C24c5ccccc5N[C@H]2Oc2ccc(cc24)C[C@H](NC(=O)[C@@H](O)C(C)C)C(=O)N[C@H]3C(C)C)n1 (stereo partly drawn) [Compound 101] | 500 | 684 |
| COC(=O)c1coc(-c2nc3oc2[C@]24c5ccccc5NC2Oc2ccc(cc24)C[C@H](NC(=O)[C@@H](O)C(C)C)C(=O)N[C@H]3C(C)(C)C)n1 (stereo partly drawn) [Compound 103] | 69 | 221 |
| COC(=O)c1coc(-c2nc3oc2CC/C=C/C[C@H](NC(=O)[C@@H](O)C(C)C)C(=O)N[C@H]3C(C)C)n1 [Compound 104] | > 300 | > 300 |
| COC(=O)c1coc(-c2nc3oc2CCCCC[C@H](NC(=O)[C@@H](O)C(C)C)C(=O)N[C@H]3C(C)C)n1 [Compound 105] | > 300 | > 300 |
